Laboratory results: patent publication US11130960B2, “Methods for conferring or enhancing herbicide resistance on plants and/or alga with protoporphyrinogen oxidase variants” (FARM HANNONG CO., LTD., priority 2014, dated 2021)

How the values were obtained:
CyPPO4 = test: Growth inhibition of transformed PPO-deficient E. coli BT3(ΔPPO) on LB agar medium; type: cell-based, Lyngbya sp. PCC 8106; details: 37° C., 16~20 hours
Description: (§1) To test herbicide resistance of CyPPO2, CyPPO4, CyPPO8 and CyPPO12 isolated in Example 1, PPO-deficient BT3 E. coli [hereinafter, referred to as BT3(ΔPPO)] was transformed with CyPPO2, CyPPO4, CyPPO8 or CyPPO12 gene, respectively and then cultured in the presence of herbicides to examine growth inhibition of the transformed E. coli. As a negative control, Arabidopsis thaliana-derived wild-type PPO (wild-type AtPPO1) was used, and wild-type AtPPO1 has sensitivity to PPO-based herbicides and its sequence information is available in GeneBank accession no. AX084732 (a nucleotide sequence of the gene is represented by SEQ ID NO: 10, and an amino acid sequence thereof is represented by SEQ ID NO: 9). As a positive control, Mutant AtPPO1 was used, in which amino acid replacements of Y426M (replacement of tyrosine by methionine at position 426) and S305L (replacement of serine by leucine at position 305) occur in the amino acid sequence of the wild-type AtPPO1 (an amino acid sequence is represented by SEQ ID NO: 11) (Li X, Volrath S L., N D B. G., Chilcott C E, Johnson M A, Ward E R, Law M D (2003) Development of protoporphyrinogen oxidase as an efficient selection marker for Agrobacterium tumefaciens-mediated transformation of maize. Plant physiology 133:736-747).
(§2) BT3(ΔPPO) strain was provided by Hokkaido University (Japan) and it is an E. coli strain which is deficient in hemG-type PPO and has Kanamycin resistance (Watanabe et al., (2001) Dual targeting of spinach protoporphyrinogen oxidase II to mitochondria and chloroplasts by alternative use of two in-frame […] codons. JBC 2047420481).
(§3) HVE-50 autoclave from Hirayama, HS2100A electronic scale from Hansung Instrument, CB-30V clean bench from Jeio Tech, JSI-200CL incubator from JSR, 1210 type UV-visible spectrophotometer from Thermo Fisher Scientific, MQ-200 photometer from Apogee, and Bio-Rad MyCycler as PCR machine were used. The autoclave was used under conditions of 121° C. and 15 minutes, and the incubator was used at 37° C. with lighting of 160˜200 μmol m^−2 s^−1 for a culture time of 14˜20 hours. LB medium (10 g/L of Bacto-Tryptone, 5 g/L of Yeast extract, 10 g/L of sodium chloride, 15 g/L of Bacto agar) and an antibiotic Chloramphenicol (Duchefa) were used.
(§4) To clone each of the CyPPO2, CyPPO4, CyPPO8 and CyPPO12 genes isolated and amplified in Example 1 into pACBB (its structure is shown in FIG. 2), 10 μl of a solution containing 4 μl of each PPO gene, […], 1 μl of 10× buffer A, 1 μl of 10× buffer B, 1 μl of ligase (RBC, 3 unit/μl) was prepared and allowed to react at 22° C. for 30 minutes. The reaction solution was added to 100 μl of DH5 alpha competent cells, and allowed to react on ice for 20 minutes and then left at 42° C. for 40 seconds. Thereafter, the cells were left on ice for 2 minutes, and then 1 ml of LB broth was added thereto, followed by incubation with shaking at 37° C. for 1 hour. The strains having each gene insert in the culture medium were harvested, and then cultured on LB agar medium containing chloramphenicol.
(§5) For seed culture of E. coli transformed with respective genes, single colonies thereof were cultured in 3 ml of LB broth containing chloramphenicol overnight, and each 100 μl thereof was sub-cultured in 3 ml of fresh LB broth until absorbance (OD600) reached 0.5˜1. They were diluted with LB broth to absorbance (OD600) of 0.5. 10-fold dilution of this diluted solution was performed with LB broth five times. Next, 10 μl of the diluted solution of the transformed E. coli culture was dropped on LB agar medium (petri dish) containing chloramphenicol and a variety of herbicide stocks at different concentrations (0˜400 μM). The LB agar plates were incubated at 37° C. At 16˜20 hours after culture, growth inhibition was examined with the naked eye. Further, growth inhibition of the strains cultured in a medium containing Tiafenacil was examined under light (lighting of 169 μmol m^−2s^−1) and dark conditions.

Mutant AtPPO1 = biological target: T1, Mutant AtPPO1 (Arabidopsis thaliana, UniProt P55826, S305L/Y426M); test: as above; type: cell-based; details: 37° C., 16~20 hours
T1 construct: expressed in transfected cells; host or cells: E. coli BT3(ΔPPO), pACBB vector
Description: as §1, §2, §3, §4, §5

CyPPO12 = test: as above; type: cell-based, Microcoleus vaginatus; details: 37° C., 16~20 hours
Description: as §1, §2, §3, §4, §5

CyPPO4 transformant = test: Herbicide spray test on Arabidopsis thaliana T2 plants; type: in vivo; details: 2-3 ml of 0.5 μM Tiafenacil, 1 μM Saflufenacil, or 3 μM Fomesafen per plant
Description: (§6) To examine whether herbicide resistance traits are maintained in the next generations of plants, respective T2 generation plants of Arabidopsis thaliana which were transformed with CyPPO2, CyPPO4 and CyPPO8 genes were subjected to an herbicide resistance test. 2-3 ml of 0.5 μM Tiafenacil, 1 μM Saflufenacil, or 3 μM Fomesafen was sprayed onto each Arabidopsis thaliana plant grown for about 4 weeks.

CyPPO2 transformant = test: as above; type: in vivo; details: 2-3 ml of 0.5 μM Tiafenacil, 1 μM Saflufenacil, or 3 μM Fomesafen per plant
Description: as §6

CyPPO8 transformant = test: as above; type: in vivo; details: 2-3 ml of 0.5 μM Tiafenacil, 1 μM Saflufenacil, or 3 μM Fomesafen per plant
Description: as §6

[1] = tested on: mutant AtPPO1 transformant; test: as above; type: in vivo; details: 2-3 ml of 0.5 μM Tiafenacil, 1 μM Saflufenacil, or 3 μM Fomesafen per plant
wild-type AtPPO1 = biological target: T2, wild-type AtPPO1 (Arabidopsis thaliana, UniProt P55826); test: Growth inhibition of transformed PPO-deficient E. coli BT3(ΔPPO) on LB agar medium; type: cell-based
T2 construct: expressed in transfected cells; host or cells: E. coli BT3(ΔPPO), pACBB vector
T2 sequence (P55826 35-537): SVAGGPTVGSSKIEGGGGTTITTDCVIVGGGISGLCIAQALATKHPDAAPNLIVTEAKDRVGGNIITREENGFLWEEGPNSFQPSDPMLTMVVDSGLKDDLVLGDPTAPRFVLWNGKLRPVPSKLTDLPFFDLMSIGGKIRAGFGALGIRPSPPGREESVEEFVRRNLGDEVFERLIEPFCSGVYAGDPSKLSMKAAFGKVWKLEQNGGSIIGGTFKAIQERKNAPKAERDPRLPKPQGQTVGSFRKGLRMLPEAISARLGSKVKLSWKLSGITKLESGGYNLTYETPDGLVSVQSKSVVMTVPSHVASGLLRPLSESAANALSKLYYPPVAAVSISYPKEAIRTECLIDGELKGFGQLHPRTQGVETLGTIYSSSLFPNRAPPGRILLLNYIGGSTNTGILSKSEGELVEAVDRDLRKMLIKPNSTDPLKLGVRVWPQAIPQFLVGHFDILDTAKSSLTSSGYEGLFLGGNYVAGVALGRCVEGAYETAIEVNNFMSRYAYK
Description: as §1, §2, §3, §4, §5

[2] = LB agar medium, 37° C., 16~20 hours

T1 sequence (P55826 35-537 S305L/Y426M): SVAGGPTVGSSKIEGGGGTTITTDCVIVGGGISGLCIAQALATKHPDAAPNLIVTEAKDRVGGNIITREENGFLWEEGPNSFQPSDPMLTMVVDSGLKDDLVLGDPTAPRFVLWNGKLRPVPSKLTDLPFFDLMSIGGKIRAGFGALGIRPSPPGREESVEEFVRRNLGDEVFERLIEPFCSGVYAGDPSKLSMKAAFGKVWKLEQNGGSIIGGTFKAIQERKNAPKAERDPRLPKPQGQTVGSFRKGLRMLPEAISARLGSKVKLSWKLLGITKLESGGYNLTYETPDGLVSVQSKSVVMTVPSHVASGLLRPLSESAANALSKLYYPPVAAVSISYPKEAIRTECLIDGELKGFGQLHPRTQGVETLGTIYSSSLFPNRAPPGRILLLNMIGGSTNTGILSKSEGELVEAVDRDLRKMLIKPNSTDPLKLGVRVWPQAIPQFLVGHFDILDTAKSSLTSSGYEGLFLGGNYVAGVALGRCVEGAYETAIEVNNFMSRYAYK

Structure (SMILES) | concentration at which growth inhibition was hardly observed (CyPPO4) [µM] | concentration at which growth inhibition was not / hardly observed (Mutant AtPPO1) [µM] | concentration at which growth inhibition was not / hardly observed (CyPPO12) [µM] | other results
O=C(O)c1cc(Oc2ccc(C(F)(F)F)cc2Cl)ccc1[N+](=O)[O-] [Acifluorfen] | 400 |  |  | 
C=CCOC(=O)C(C)(C)OC(=O)c1cc(-n2c(=O)cc(C(F)(F)F)n(C)c2=O)ccc1Cl [Butafenacil] |  | 25 |  | 
C#CCN1C(=O)COc2cc(F)c(N3C(=O)C4=C(CCCC4)C3=O)cc21 [Flumioxazin] | 25 |  | 25 | 
CS(=O)(=O)NC(=O)c1cc(Oc2ccc(C(F)(F)F)cc2Cl)ccc1[N+](=O)[O-] [Fomesafen] | 400 | ≤ 25 |  | outcome of plants at 7 days after spraying (CyPPO4 transformant): continued to grow without damage; outcome of plants at 7 days after spraying (CyPPO2 transformant): continued to grow without damage; outcome of plants at 7 days after spraying (CyPPO8 transformant): continued to grow without damage; outcome of plants at 7 days after spraying [1]: continued to grow without damage; concentration at which growth inhibition was observed (wild-type AtPPO1; [2]): 5 µM
CC(C)Oc1cc(-n2nc(C(C)(C)C)oc2=O)c(Cl)cc1Cl [Oxadiazon] |  | 25 | 25 | concentration at which growth inhibition began (wild-type AtPPO1; [2]): 0.5 µM
CCOc1cc(Oc2ccc(C(F)(F)F)cc2Cl)ccc1[N+](=O)[O-] [Oxyfluorfen] | 400 |  |  | concentration at which growth inhibition began (Mutant AtPPO1): 5 µM
CC(C)=C1OC(=O)N(c2cc(OC3CCCC3)c(Cl)cc2F)C1=O [Pentoxazone] |  | 25 | 25 | 
C#CCN(C)c1c(C#N)cnn1-c1nn2c(c1Cl)CCCC2 [Pyraclonil] |  | 25 | 25 | concentration at which the strain hardly grew (wild-type AtPPO1; [2]): 25 µM
CCOC(=O)COc1cc(-c2nn(C)c(OC(F)F)c2Cl)c(F)cc1Cl [Pyraflufen-ethyl] |  | 25 | 25 | concentration at which growth inhibition began (wild-type AtPPO1; [2]): 0.5 µM
CC(C)N(C)S(=O)(=O)NC(=O)c1cc(-n2c(=O)cc(C(F)(F)F)n(C)c2=O)c(F)cc1Cl [Saflufenacil] | 25 | 25 | 25 | outcome of plants at 7 days after spraying (CyPPO4 transformant): continued to grow without damage; outcome of plants at 7 days after spraying (CyPPO2 transformant): continued to grow without damage; outcome of plants at 7 days after spraying (CyPPO8 transformant): continued to grow without damage; outcome of plants at 7 days after spraying [1]: continued to grow without damage
Cc1nn(-c2cc(NS(C)(=O)=O)c(Cl)cc2Cl)c(=O)n1C(F)F [Sulfentrazone] | 400 | 25 | 25 | concentration at which growth inhibition began (wild-type AtPPO1; [2]): 0.5 µM
COC(=O)CCNC(=O)C(C)Sc1cc(-n2c(=O)cc(C(F)(F)F)n(C)c2=O)c(F)cc1Cl (stereo not drawn) [Tiafenacil] | 25 | 25 | 25 | outcome of plants at 7 days after spraying (CyPPO4 transformant): continued to grow without damage; outcome of plants at 7 days after spraying (CyPPO2 transformant): continued to grow without damage; outcome of plants at 7 days after spraying (CyPPO8 transformant): continued to grow without damage; outcome of plants at 7 days after spraying [1]: continued to grow without damage; growth at 1 μM under dark condition (wild-type AtPPO1; agar medium, 1 μM, dark condition): rather maintained; concentration at which growth was completely inhibited (wild-type AtPPO1; agar medium, both light and dark conditions): ≥ 5 µM; concentration at which growth was almost completely inhibited (wild-type AtPPO1; agar medium, light condition): 1 µM
